ChEMBL document CHEMBL6182903, “Synthetic approaches and clinical application of KRAS inhibitors for cancer therapy” (Eur J Med Chem, 2025)

Tests used:
BaF3 = experiment: Cytotoxicity against mouse BaF3 cells harboring KRAS G12R mutant assessed as reduction in cells growth incubated for 72 hrs by Celltiter-Glo luminescence-based assay; type: functional, cell-based; settings: BaF3, 72 h
GTPase KRas [1] = molecular target: T1, GTPase KRas (Homo sapiens, UniProt P01116, G12S); experiment: Binding affinity to human recombinant GDP-bound KRAS G12S mutant (1 to 169 residues) assessed as inhibition constant
GTPase KRas [2] = molecular target: T1, GTPase KRas; experiment: Inhibition of KRAS G12S mutant in human A549 cells assessed as reduction in ERK phosphorylation; type: cell-based
[3] = molecular target: von Hippel-Lindau disease tumor suppressor/GTPase KRas (Homo sapiens, UniProt P01116+P40337, G12C); experiment: PROTAC activity at VHL/KRAS G12C mutant in human MIA PaCa-2 cells assessed as induction of KRAS G12C degradation; type: cell-based
[4] = PROTAC activity at CRBN/KRAS G12C mutant in human MIA PaCa-2 cells assessed as induction of KRAS G12C degradation; type: cell-based

CC(=O)CC(=O)N1[C@@H]2CC[C@H]1CN(c1nc(OCC34CCCN3CCC4)nc3c(F)c(-c4cccc5cccc(Cl)c45)ncc13)C2
IC50 (BaF3): < 100 µM

O=C1O[C@H]2CN(c3nc(OCC45CCCN4CCC5)nc4c3CCN(c3cccc5cccc(Cl)c35)C4)CC[C@@H]12
Ki (GTPase KRas [1]): 26 µM | IC50 (GTPase KRas [2]): 2.4 µM

C=C(F)C(=O)N1CCN(c2nc(OC[C@@H]3CCCN3CCCOCCC(=O)N[C@H](C(=O)N3C[C@H](O)C[C@H]3C(=O)NCc3ccc(-c4scnc4C)cc3)C(C)(C)C)nc3c2CCN(c2cccc4cccc(Cl)c24)C3)C[C@@H]1CC#N
DC50 [3]: 0.12 µM

C=CC(=O)N1CCN(c2nc(NCCCN3CCN(CCCNc4cccc5c4C(=O)N(C4CCC(=O)NC4=O)C5=O)CC3)nc3c(F)c(-c4cc(O)cc5ccccc45)c(Cl)cc23)CC1 (stereo not given)
DC50 [4]: 3.2 µM
